Results taken from patent US8063221B2, “Aminoquinolones as GSK-3 inhibitors” (Kyorin Pharmaceutical Co., Ltd., priority 2006, dated 2011).
Values after ≈ are worked out from the molar mass of the structure shown. Where two headings read alike, the source gives them in different places.

Tests used:
E. coli, ATCC8739 = experiment: Antibacterial activity (MIC), E. coli; type: cell-based; conditions: Escherichia coli
Text: (§1) As used herein, a minimum inhibitory concentration (MIC) for bacterial growth assay is the lowest level of a compound needed to cause an inhibition to bacterial growth in culture medium. In certain embodiments, the antibacterial activity of compounds herein, measured as MIC.
(§2) In certain embodiments, GSK3 inhibitors provided herein are substantially free of antibacterial activity or having very low antibacterial activity. The antibacterial activity can be measured by methods known in the art by estimating a minimum inhibitory concentration (MIC) for test compounds. A MIC is the lowest level of a compound needed to cause an inhibition to bacterial growth in a culture medium. […] (Clinical and Laboratory Standards Institute. Methods for Dilution Antimicrobial Susceptibility Tests for Bacteria That Grow Aerobically; Approved Standard-Sixth Edition: CLSI document […]. CLSI, Wayne, Pa. (2003))
(§3) Antibacterial activity for E. coli, ATCC8739 andS. aureus Smith expressed as MIC (μM) is provided as follows: […]

S. aureus Smith = experiment: Antibacterial activity (MIC), S. aureus; type: cell-based; conditions: Staphylococcus aureus
Text: as §1, §2, §3

[1] = biological target: T1, recombinant full-length human GSK3β (Homo sapiens, UniProt P49841); experiment: Luciferase-coupled cell-free GSK3β kinase assay; type: biochemical
T1 construct: recombinant full-length human GSK3β (Upstate); purchased Upstate
Procedure: For compounds in Tables 1 and 2, IC50 (μM) for GSK3β enzyme in cell free assay is provided as follows:
Luciferase-Coupled Protein Kinase Assays
All coupled-luciferase assays are performed by using a brief incubation with firefly luciferase (Promega) after completion of the kinase assay. KinaseGlo Plus is used for reading kinase reactions with ATP>10 μM, KinaseGlo for ATP <10 μM. The assay volume in a 384-well plate for the kinase reaction is 30 microliters.
10-25 ng of recombinant full-length human GSK3β (Upstate) is incubated in the presence or absence of compound at varying concentrations for 1 hour at 30 degrees Celsius in 20 mM MOPS, pH 7.0, 10 mM magnesium acetate, 0.2 mM EDTA, 2 mM EGTA, 30 mM magnesium chloride, 62.5 μM phospho-glycogen synthase peptide-2, 5 μM ATP, 10 mM β-glycerol phosphate, 1 mM sodium orthovanadate and 1 mM dithiothreitol. Proceed to KinaseGlo luciferase reaction (see below).
Following the completion of the kinase reaction an equal volume of KinaseGlo or KinaseGlo Plus luciferase reagent (Promega) is added and the luminescence read using a luminescence plate reader within 5-10 minutes. Compound activity is expressed as % inhibition relative to maximal inhibition observed at the maximal dose and IC50 values then calculated using curve fitting software (GraphPad Prizm).

[2] = ATCC8739, Table 2, E. coli ATCC8739, read-out: Antimicrobial MIC [μM] E. Coli
[3] = Table 2, S. aureus Smith, read-out: Antimicrobial MIC [μM] S. aureus
[4] = ATCC8739, Table 1, E. coli ATCC8739, read-out: Antibacterial MIC (μM) E.Coli
[5] = Table 1, read-out: Antibacterial MIC (μM) S. aureus Smith

T1 sequence (P49841 whole entry): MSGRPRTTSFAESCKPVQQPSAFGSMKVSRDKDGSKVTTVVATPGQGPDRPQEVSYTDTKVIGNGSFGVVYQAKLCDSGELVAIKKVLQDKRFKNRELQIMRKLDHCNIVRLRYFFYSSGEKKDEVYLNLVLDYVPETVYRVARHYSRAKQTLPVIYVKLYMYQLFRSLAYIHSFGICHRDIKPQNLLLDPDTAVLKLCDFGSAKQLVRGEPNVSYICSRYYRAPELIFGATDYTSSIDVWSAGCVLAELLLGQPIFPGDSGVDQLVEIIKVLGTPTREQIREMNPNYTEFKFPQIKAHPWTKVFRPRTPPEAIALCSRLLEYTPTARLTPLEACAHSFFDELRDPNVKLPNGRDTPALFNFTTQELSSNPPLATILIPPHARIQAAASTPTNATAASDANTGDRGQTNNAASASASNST

IC50 ([1]; Table 1) [nM] | IC50 ([1]; Table 2) [nM] | SMILES | also measured
 | < 100 | CC1(C)COc2c(NCCNc3cccc4ccccc34)c(F)c(N)c3c(=O)c(C(=O)O)cn1c23 [compound 36] | MIC (E. coli, ATCC8739; [2]): 10 to 50 µM (≈ 4.77 to 23.8 µg/mL); MIC (S. aureus Smith; [3]): 10 to 50 µM (≈ 4.77 to 23.8 µg/mL)
 | 100 to 500 | CC(C)OCCCNc1c(F)c(N)c2c(=O)c(C(=O)O)cn3c2c1OCC3C (stereo not drawn) [compound 4] | MIC (E. coli, ATCC8739; [2]): > 50 µM; MIC (S. aureus Smith; [3]): 0.5 to 10 µM (≈ 0.197 to 3.93 µg/mL)
 | < 100 | C[C@H]1COc2c(NCCCc3ccccc3)c(F)c(N)c3c(=O)c(C(=O)O)cn1c23 [compound 29] | MIC (E. coli, ATCC8739; [2]): 10 to 50 µM (≈ 4.11 to 20.6 µg/mL)
 | > 1000 | Nc1c(F)c(NCCNc2ccccn2)c2c3c1c(=O)c(C(=O)O)cn3CCCO2 [compound 11] | 
 | < 100 | C[C@H]1COc2c(NCCOc3ccc(Cl)cc3)c(F)c(N)c3c(=O)c(C(=O)O)cn1c23 [compound 83] | 
 | < 100 | COc1ccc(CCCNc2c(F)c(N)c3c(=O)c(C(=O)O)cn4c3c2OC[C@@H]4C)cc1 [compound 73] | 
 | 100 to 500 | C[C@H]1COc2c(NCCC(c3ccccc3)c3ccc4c(c3)OCO4)c(F)c(N)c3c(=O)c(C(=O)O)cn1c23 (stereo partly drawn) [Example 97] | 
 | 100 to 500 | Nc1c(F)c(NCCCn2cnc3ccccc32)c2c3c1c(=O)c(C(=O)O)cn3CCCO2 [compound 45] | 
< 100 |  | CC1COc2c(NCCCn3ccnc3)c(F)c(N)c3c(=O)c(C(=O)O)cn1c23 (stereo not drawn) [compound 89] | 
 | 500 to 1000 | Nc1c(F)c(NCCCn2cc[n+]3ccccc23)c2c3c1c(=O)c(C(=O)O)cn3CCO2 [compound 10] | 
 | < 100 | Cc1cc(OCCNc2c(F)c(N)c3c(=O)c(C(=O)O)cn4c3c2OC[C@@H]4C)ccc1Cl [compound 84] | 
 | < 100 | COc1cccc(CCCNc2c(F)c(N)c3c(=O)c(C(=O)O)cn4c3c2OC[C@@H]4C)c1 [compound 89] | 
 | 100 to 500 | C[C@H]1COc2c(NCCCN3CCc4ccccc43)c(F)c(N)c3c(=O)c(C(=O)O)cn1c23 [compound 68] | 
 | < 100 | Cc1ccc2nc(C)cc(NCCNc3c(F)c(N)c4c(=O)c(C(=O)O)cn5c4c3OC[C@@H]5C)c2c1 [Example 100] | 

Further lines, the molecule ahead of its results:

SMILES | IC50 ([1]; Table 1) [nM] | IC50 ([1]; Table 2) [nM] | also measured
Nc1c(F)c(NCCc2ccc(F)cc2)c(F)c2c1c(=O)ccn2C1CC1 [compound 10] | 500 to 1000 |  | MIC (E. coli, ATCC8739; ATCC8739, read-out: Antibacterial MIC (μM) E.Coli): 10 to 50 µM (≈ 3.73 to 18.7 µg/mL); MIC (S. aureus Smith; read-out: Antibacterial MIC (μM) S. aureus Smith): 10 to 50 µM (≈ 3.73 to 18.7 µg/mL)
Nc1c(F)c(NCCNc2cccc3ccccc23)c(F)c2c1c(=O)ccn2CCc1ccccc1 [compound 64] | 100 to 500 |  | MIC (E. coli, ATCC8739; [4]): 10 to 50 µM (≈ 4.85 to 24.2 µg/mL); MIC (S. aureus Smith; [5]): 10 to 50 µM (≈ 4.85 to 24.2 µg/mL)
Nc1c(F)c(NCCc2ccncc2)c(F)c2c1c(=O)ccn2CCc1ccccc1 [compound 59] | 100 to 500 |  | MIC (E. coli, ATCC8739; [4]): > 50 µM; MIC (S. aureus Smith; [5]): > 50 µM
CCOC(=O)CCNc1c(F)c(N)c2c(=O)c(C(=O)O)cn(C3CC3)c2c1OC [Example 122] |  | 500 to 1000 | MIC (E. coli, ATCC8739; [2]): 10 to 50 µM (≈ 4.07 to 20.4 µg/mL); MIC (S. aureus Smith; [3]): 0.5 to 10 µM (≈ 0.204 to 4.07 µg/mL)
N#Cc1ccc(NCCNc2c(F)c(N)c3c(=O)c(C(=O)O)cn(C4CC4)c3c2F)nc1 [compound 37] | 100 to 500 |  | 
Nc1c(F)c(NCCc2ccccc2)c(F)c2c1c(=O)ccn2C1CC1 [compound 32] | 500 to 1000 |  | 
Nc1c(F)c(NCc2ccc(Cl)cc2)c(F)c2c1c(=O)c(C(=O)O)cn2C1CC1 [compound 8] | 500 to 1000 |  | 
Nc1c(F)c(NCCCn2ccnc2)c2c3c1c(=O)c(C(=O)O)cn3CCCO2 [compound 53] |  | 100 to 500 | 
Nc1c(F)c(NCCc2ccc(-c3ccccc3)cc2)c(F)c2c1c(=O)ccn2C1CC1 [compound 27] | > 1000 |  | 
Nc1c(F)c(NCCNC(=O)c2ccccn2)c(F)c2c1c(=O)c(C(=O)O)cn2C1CC1 [compound 38] | 500 to 1000 |  | 
Nc1c(F)c(NCc2ccc(Cl)cc2)c(F)c2c1c(=O)ccn2C1CC1 [compound 14] | > 1000 |  | 
CC1(C)COc2c(NCCNc3cccc(F)n3)c(F)c(N)c3c(=O)c(C(=O)O)cn1c23 [compound 35] |  | < 100 | 
